In ChEMBL document CHEMBL1133260, “Synthesis and evaluation of aza HUN-7293” (Bioorg Med Chem Lett, 2000):
*1 amine or outer side, *2 acyl side, *3 side chain or, on linkers, in order; H or OH if unused. Where a SMILES comes first, the peptide text is derived from it. [ ]: non-standard residue; d: D form. NMeTrp(1-OMe) = CN[C@@H](Cc1cn(OC)c2ccccc12)C(=O)O; Butanoyl(2R-oxy,4-CN) = N#CCC[C@@H](O)C(=O)O; X1 = CCCC[C@@H](C)C[C@H](N[*:1])C(=O)[*:2]; NMeL = CN[C@@H](CC(C)C)C(=O)O; NMeA = CN[C@@H](C)C(=O)O

Columns and labels:
Format in all cases: functional, cell-based
HUVEC [1] = test: The compound was tested for the ability to inhibit inducible cell adhesion molecule expression (VCAM-1) in primary human endothelial cell line (HUVEC)
HUVEC [2] = test: The compound was tested for the ability to inhibit inducible cell adhesion molecule expression (ICAM-1) in primary human endothelial cell line (HUVEC)
HUVEC [3] = test: The compound was tested for the ability to inhibit inducible cell adhesion molecule expression (E-selectin) in primary human endothelial cell line (HUVEC)
HMEC [4] = test: The compound was tested for the ability to inhibit inducible cell adhesion molecule expression (VCAM-1) in primary human micro vascular cell line (HMEC-1)
HMEC [5] = test: The compound was tested for the ability to inhibit inducible cell adhesion molecule expression (ICAM-1) in primary human micro vascular cell line (HMEC-1)
HUVEC [6] = test: The compound (derived from natural HUN-7293) was tested for the ability to inhibit inducible cell adhesion molecule expression (E-selectin) in primary human endothelial cell line (HUVEC)
HMEC [7] = test: The compound (derived from natural HUN-7293) was tested for the ability to inhibit inducible cell adhesion molecule expression (ICAM-1) in primary human micro vascular cell line (HMEC-1)
HUVEC [8] = test: The compound (synthetic) was tested for the ability to inhibit inducible cell adhesion molecule expression (E-selectin) in primary human endothelial cell line (HUVEC)
HMEC [9] = test: The compound (derived from natural HUN-7293) was tested for the ability to inhibit inducible cell adhesion molecule expression (VCAM-1) in primary human micro vascular cell line (HMEC-1)
HUVEC [10] = test: The compound (synthetic) was tested for the ability to inhibit inducible cell adhesion molecule expression (ICAM-1) in primary human endothelial cell line (HUVEC)
HUVEC [11] = test: The compound (derived from natural HUN-7293) was tested for the ability to inhibit inducible cell adhesion molecule expression (VCAM-1) in primary human endothelial cell line (HUVEC)
HUVEC [12] = test: The compound (synthetic) was tested for the ability to inhibit inducible cell adhesion molecule expression (VCAM-1) in primary human endothelial cell line (HUVEC)
HUVEC [13] = test: The compound (derived from natural HUN-7293) was tested for the ability to inhibit inducible cell adhesion molecule expression (ICAM-1) in primary human endothelial cell line (HUVEC)
HMEC [14] = test: The compound (synthetic) was tested for the ability to inhibit inducible cell adhesion molecule expression (VCAM-1) in primary human micro vascular cell line (HMEC-1)

For `CCCC[C@@H](C)C[C@@H]1NC(=O)[C@@H](CCC#N)NC(=O)[C@H](C)N(C)C(=O)[C@H](C[C@H](C)CCCC)NC(=O)[C@H](Cc2cn(OC)c3ccccc23)N(C)C(=O)[C@H](CC(C)C)NC(=O)[C@@H](CC(C)C)N(C)C1=O`, the IC50 (HUVEC [1]) was 560 nM, the IC50 (HUVEC [2]) was > 3000 nM and the IC50 (HUVEC [3]) was > 10000 nM. For the same compound, the IC50 (HMEC [4]) was 550 nM and the IC50 (HMEC [5]) was > 3000 nM.

For `CCCC[C@@H](C)C[C@@H]1NC(=O)[C@H](Cc2cn(OC)c3ccccc23)N(C)C(=O)[C@H](CC(C)C)NC(=O)[C@H](CC(C)C)N(C)C(=O)[C@H](C[C@H](C)CCCC)NC(=O)[C@@H](CCC#N)NC(=O)[C@H](C)N(C)C1=O`, the IC50 (HUVEC [6]) was 540 nM, the IC50 (HMEC [7]) was 540 nM and the IC50 (HUVEC [8]) was 1000 nM. It also gave an IC50 (HMEC [9]) of 22 nM, an IC50 (HUVEC [10]) of 950 nM and an IC50 (HUVEC [11]) of 33 nM. The IC50 (HUVEC [12]) was 64 nM, the IC50 (HUVEC [13]) was 540 nM and the IC50 (HMEC [14]) was 58 nM.

`CCCC[C@@H](C)C[C@@H]1NC(=O)[C@H](Cc2cn(OC)c3ccccc23)N(C)C(=O)[C@H](CC(C)C)NC(=O)[C@H](CC(C)C)N(C)C(=O)[C@H](C[C@H](C)CCCC)NC(=O)[C@@H](CCC#N)OC(=O)[C@H](C)N(C)C1=O` (cyclo(L[NMeTrp(1-OMe)][X1][NMeA][Butanoyl(2R-oxy,4-CN)][X1][NMeL])) was tested, and the IC50 (HUVEC [1]) was 3 nM, the IC50 (HUVEC [2]) was 26 nM and the IC50 (HUVEC [3]) was 44 nM. The IC50 (HMEC [4]) was 1 nM and the IC50 (HMEC [5]) was 24 nM.
